Measured values as given in patent publication US7863324B2, “Chroman-derived compounds for the treatment of cancer” (Wisconsin Alumni Research Foundation, priority 2003, dated 2011).
“And” between values parts separate entries of the source, which are not always exact repeats. Identical values can stand only once. “Also recorded” adds a separate entry of the source. Like-named read-outs stand apart in the source and are kept apart here.

Tests used:
[1] = general statement; cited from earlier work
[2] = target: androgen receptor in LAPC4 cells (normal human AR) (Homo sapiens, UniProt P10275); test: Androgen receptor binding competition assay (3H-R1881) in LAPC4 cells
Method: (§1) Androgen receptor binding competition assay. An androgen receptor binding competition assay was performed as previously described (22). LNCaP or LAPC4 prostate carcinoma cells were plated in 12-well tissue culture dishes (Costar, Corning, N.Y.) at 3.0×10^5 cells per well in phenol-red free DMEM/CSS 3 d prior to analysis. For competitor analysis, DMEM/CSS was removed by aspiration and replaced with 1 mL of phenol-red free DMEM containing 1 nM ^3H-R1881, 1 μM triamcinolone acetonide, and competitor at the specified concentrations for 2 h at 37° C. in a 5% CO2 incubator. […] Cells were washed twice with 1 mL phenol red-free DMEM and placed in 8.0 mL of ScintiVerse II Scintillation Cocktail (Fisher Scientific, Pittsburgh, Pa.) for determination of radioactivity (i.e., dpm) using a Beckman LS 6000TA Liquid Scintillation System (Beckman Instruments Inc., Fullerton, Calif.).

Water solubility = format: physicochemical; conditions: cell culture studies
[3] = Method: The oral toxicity of PMCol was determined in 6 month-old male FVB mice. A single high oral dose of 1000 mg/kg PMCol in sesame oil was administered to 4 mice by gavage. Four control mice received only sesame oil by gavage (vehicle control). […] In a second study, four 6 month-old male FVB mice received 200 mg/kg PMCol daily in sesame oil by gavage for 10 days. Three mice receiving only sesame oil (vehicle control) were used as controls. Body weights were determined daily and all mice were autopsied to examine gross organ changes on day 11.
[4] = target: T1, androgen receptor in LNCaP cells (functional mutant AR) (Homo sapiens, UniProt P10275, T878A); test: Androgen receptor binding competition assay (3H-R1881) in LNCaP cells
T1 construct: host or cells: LNCaP
T1 sequence (P10275 1-920 T878A): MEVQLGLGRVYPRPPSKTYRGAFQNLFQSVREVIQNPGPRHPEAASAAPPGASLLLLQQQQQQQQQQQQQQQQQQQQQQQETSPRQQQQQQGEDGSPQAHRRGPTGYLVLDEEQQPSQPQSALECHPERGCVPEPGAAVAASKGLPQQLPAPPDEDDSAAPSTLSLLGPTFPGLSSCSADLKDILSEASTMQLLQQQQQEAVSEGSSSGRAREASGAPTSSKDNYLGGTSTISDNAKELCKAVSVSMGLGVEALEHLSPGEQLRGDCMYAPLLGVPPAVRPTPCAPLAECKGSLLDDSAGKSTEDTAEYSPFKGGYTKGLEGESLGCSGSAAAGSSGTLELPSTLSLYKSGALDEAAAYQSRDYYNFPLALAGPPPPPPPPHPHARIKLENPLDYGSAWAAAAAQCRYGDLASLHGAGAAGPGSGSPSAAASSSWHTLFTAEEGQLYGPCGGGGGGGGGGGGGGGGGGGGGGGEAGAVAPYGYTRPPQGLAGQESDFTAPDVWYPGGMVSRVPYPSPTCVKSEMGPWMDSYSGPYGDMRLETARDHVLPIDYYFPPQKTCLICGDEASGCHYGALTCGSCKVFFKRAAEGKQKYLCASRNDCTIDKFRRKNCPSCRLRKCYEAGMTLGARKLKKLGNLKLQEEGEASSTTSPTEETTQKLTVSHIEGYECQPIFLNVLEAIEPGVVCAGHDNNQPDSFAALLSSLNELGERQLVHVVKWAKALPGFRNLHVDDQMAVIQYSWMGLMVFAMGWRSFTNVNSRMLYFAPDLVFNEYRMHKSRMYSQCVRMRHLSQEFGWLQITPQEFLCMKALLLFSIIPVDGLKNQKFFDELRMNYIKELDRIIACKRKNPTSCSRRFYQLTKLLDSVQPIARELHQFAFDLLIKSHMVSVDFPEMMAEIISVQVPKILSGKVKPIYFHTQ
Method: as §1

[5] = tested on: MMTV promoter activity in LNCaP cells; test: Androgen-stimulated MMTV promoter luciferase reporter assay, LNCaP; format: cell-based, human; conditions: for decrease of R1881-induced luciferase expression: 24 h
Method: (§2) Androgen-stimulated promoter reporter assay analysis. LNCaP and LAPC4 prostate carcinoma cell lines were cultured in 12-well cell culture plates (Costar) in DMEM/CSS 2 to 3 d before transfection. Androgen-induced trancriptional activation was determined using a reporter construct with an MMTV promoter that regulates the expression of luciferase (24). LNCaP and LAPC4 cells were transfected with the MMTV/luciferase plasmid using the Effectene Transfection Reagent (Qiagen Inc., Valencia, Calif.), according to the manufacturer's instructions. Twenty-four h after transfection, cells were treated with R1881 with or without test reagents at the specified concentrations. Cell extracts were acquired 24 to 48 h after treatment by removing medium, washing 1× with PBS, and obtaining extract with 200 μL of 1× Reporter Lysis Buffer (Promega, Madison, Wis.). Luciferase activity was determined as previously described (24).

LAPC4 cells = test: Cell growth analysis (Hoechst DNA assay), LAPC4; format: cell-based, human; conditions: medium with 5% serum, 4 d
Method: (§3) Cell growth and viability analyses. Five thousand LNCaP or LAPC4 cells were plated in each well of 96-well plates (Costar) in 100 μl of DMEM/CSS. Two to 3 d after plating, cells were treated by adding 100 μl of DMEM/CSS containing 2× the concentration of the specified treatment to each well. Four d after treatment, the relative cell number was estimated by the determining DNA concentration of each well using a Hoechst-based fluorescence DNA assay, as previously described (23). Growth analysis with DU145 cells was performed similar to those with LNCaP and LAPC4 cells except DUI45 cells were initially seeded at 500 cells per well. Cell viability was determined by trypan blue exclusion and quantified by light microscopic analysis using a hemacytometer.

LNCaP cells = test: Cell growth analysis (Hoechst DNA assay), LNCaP; format: cell-based, human; conditions: 4 d
Method: as §3

[6] = tested on: PSA secretion from LNCaP cells; test: Androgen-induced PSA secretion from LNCaP cells; format: cell-based, human; conditions: 48 h
Method: Determination of secreted PSA levels. LNCaP cells were cultured in 96 well plates (Costar) at 5,000 cells per well in DMEM/CSS 1 d before treatment. Forty-eight h after treatment, PSA levels in cell culture media were determined using the Tandem-MP PSA kit (Beckman Coulter, Inc.) according to manufacturer's instructions. PSA levels were normalized to DNA levels as determined using a Hoechst-based fluorescence DNA assay (23).

[7] = tested on: AR protein levels in LNCaP cells; test: Immunoblot analysis of AR protein levels; format: cell-based, human; conditions: 30 μM compound, 5 d, medium with 5% serum
Method: Immunoblot analysis of AR protein levels. LNCaP cells were plated at a density of 1×10^6 cells per 100 mm cell culture plate in 10 ml of DMEM/FBS and maintained in incubators at 37° C. in 5% CO2. […] Membranes were then incubated with a secondary horseradish peroxidase-conjugated anti-mouse antibody (Amersham Pharmacia Biotech, Piscataway, N.J.) and analyzed using the Enhanced Chemiluminescence Plus reagent (Amersham Pharmacia Biotech). Autoradiograms were prepared by exposing the blots to BioMax Light X-ray film (Eastman Kodak Co., Rochester, N.Y.) and developed using a CURIX 60 CP Processor (Agfa, Ridgefield Park, N.J.).

[8] = tested on: MMTV promoter activity in LAPC4 cells; test: Androgen-stimulated MMTV promoter luciferase reporter assay, LAPC4; format: cell-based, human
Method: as §2

[9] = tested on: androgen receptor protein levels in LNCaP cells; conditions: cited from earlier work

androgen receptor in LAPC4 cells (normal human AR), sequence (P10275 whole entry): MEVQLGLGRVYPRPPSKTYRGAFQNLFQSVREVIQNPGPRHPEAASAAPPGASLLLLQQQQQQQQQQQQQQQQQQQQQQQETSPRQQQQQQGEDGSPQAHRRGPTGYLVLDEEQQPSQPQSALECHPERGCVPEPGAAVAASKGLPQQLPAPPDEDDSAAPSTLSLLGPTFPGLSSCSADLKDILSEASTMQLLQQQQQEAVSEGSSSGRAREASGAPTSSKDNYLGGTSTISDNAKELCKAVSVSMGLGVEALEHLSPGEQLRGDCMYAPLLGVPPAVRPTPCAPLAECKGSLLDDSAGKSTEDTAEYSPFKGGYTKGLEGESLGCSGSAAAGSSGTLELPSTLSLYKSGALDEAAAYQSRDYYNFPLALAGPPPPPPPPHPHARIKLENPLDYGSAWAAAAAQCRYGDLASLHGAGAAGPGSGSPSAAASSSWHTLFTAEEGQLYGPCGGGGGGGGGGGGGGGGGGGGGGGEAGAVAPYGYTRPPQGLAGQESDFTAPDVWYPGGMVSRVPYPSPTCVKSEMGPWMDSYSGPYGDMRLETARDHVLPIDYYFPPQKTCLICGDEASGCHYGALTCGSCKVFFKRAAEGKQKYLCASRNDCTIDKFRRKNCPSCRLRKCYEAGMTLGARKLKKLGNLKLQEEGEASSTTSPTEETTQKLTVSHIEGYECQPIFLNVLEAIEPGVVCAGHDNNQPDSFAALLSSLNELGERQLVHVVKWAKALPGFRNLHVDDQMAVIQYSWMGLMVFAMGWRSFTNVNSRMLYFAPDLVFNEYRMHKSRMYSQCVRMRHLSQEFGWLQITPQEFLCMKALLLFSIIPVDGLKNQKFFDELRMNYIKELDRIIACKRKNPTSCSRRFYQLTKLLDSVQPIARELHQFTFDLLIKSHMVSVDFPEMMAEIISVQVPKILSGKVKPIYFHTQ

For `Cc1c(C)c2c(c(C)c1O)CC[C@@](C)(CCC[C@H](C)CCC[C@H](C)CCCC(C)C)O2` [vitamin E, α-tocopherol], which solubility in water [1] is on record?
The solubility in water was “practically insoluble in water”.

Which “decrease in 3H-R1881 binding” value ([2]; 30 μM compound) does the source give for `Cc1c(C)c2c(c(C)c1O)CCC(C)(C)O2` [PMCol, 2,2,5,7,8-pentamethyl-6-chromanol] here?
Its value is 75%.

And the IC50 ([2]; against 1 nM R1881)?
Its IC50 is roughly 10 µM.

And the water solubility (Water solubility)?
Its water solubility is “sufficiently water soluble to permit studies in cell culture”.

What about the “gross changes in organs at autopsy” value ([3]; 200 mg/kg daily by gavage for 10 days, autopsy day 11) of the same compound?
Its value is “No gross changes in organs”.

What about the “change in animal body mass” value ([3]; mouse, in vivo) of the same compound?
The value was “no significant change”.

And the LD50 ([3]; mouse, in vivo, po)?
The LD50 was greater than 1000 mg/kg body weight.

And the “change in animal behavior or body mass” value ([3]; mouse, in vivo, po, 1000 mg/kg)?
Its value is “No significant change”.

And the “potency at competing for 3H-R1881 relative to bicalutamide (fold less potent)” value ([4]; LNCaP cells)?
The value was “approximately 10 fold”.

And the IC50 ([4]; LNCaP cells, against 1 nM 3H-R1881, estimated (FIG. 2A), read-out: IC50 for competition of 3H-R1881 binding)?
The IC50 was ~10 µM and 7.2 µM.

And the IC50 ([4]; repeated studies, data not shown, read-out: IC50 values, repeated studies of competition for 3H-R1881 binding)?
The IC50 was 5 to 15 µM.

And the “decrease of R1881-induced luciferase expression” value ([5]; 1.0 nM R1881, 25 μM compound)?
The value was 50%.

And the “decrease of R1881-induced luciferase expression” value ([5]; 1.0 nM R1881, 50 μM compound)?
The value was 70%.

And the “MMTV promoter activity, compound alone” value ([5]; no R1881)?
Its value is “no effect”.

What about the “concentration required to significantly reduce cell growth” value (LAPC4 cells) of the same compound?
Its value is no less than 60 µM.

What about the “LNCaP cell growth in presence of growth inhibitory R1881” value (LNCaP cells; 1.0 nM R1881, 10 μM to 30 μM compound) of the same compound?
The value was “significant stimulation”.

And the “shift of R1881-stimulated biphasic LNCaP growth curve” value (LNCaP cells; 30 μM compound)?
The value was “shifted to the right”.

And the “concentration significantly inhibiting R1881-stimulated LNCaP growth” value (LNCaP cells; LNCaP, 0.1 nM R1881)?
The value was no less than 10 µM.

What about the “R1881 concentration giving in control cells the growth response equivalent to that at 0.3 nM R1881 under treatment” value (LNCaP cells; LNCaP, 30 μM compound) of the same compound?
Its value is 0.03 nM.

What about the “concentration at which LNCaP cell growth was decreased” value (LNCaP cells; LNCaP, FIG. 3B) of the same compound?
Its value is no less than 40 µM.

And the “growth modulatory (AR agonist) activity in androgen-deficient media” value (LNCaP cells; LNCaP, no R1881, 10 μM to 30 μM)?
The value was “no growth modulatory activity”.

And the “inhibition of R1881-stimulated PSA release” value ([6]; 0.05 nM R1881, 30 μM compound)?
The value was “completely inhibited”.

What about the “decrease of R1881-stimulated PSA levels” value ([6]; 1.0 nM R1881, 30 μM compound) of the same compound?
The value was 80% and 81%.

What about the “PSA release from LNCaP cells, compound alone” value ([6]; 30 μM, no R1881) of the same compound?
Its value is “not affected”.

What about the inhibition at 30 µM ([6]; Homo sapiens, LNCaP, 0.05 nM R1881, 30 μM compound, read-out: inhibition of R1881-stimulated PSA release) of the same compound?
The inhibition at 30 µM was 100%.

And the AR protein levels [7]?
The AR protein levels was “did not affect androgen receptor protein levels; also recorded: did not result in altered AR protein levels; also recorded: not significantly altered”.

Which results are given for `CC(O)(CS(=O)(=O)c1ccc(F)cc1)C(=O)Nc1ccc(C#N)c(C(F)(F)F)c1` (stereo not shown) [bicalutamide, reference compound]?
decrease of R1881-stimulated luciferase expression ([8]; 1.0 nM R1881, 1 μM compound): approximately 50%; decrease of R1881-stimulated luciferase expression ([5]; 1.0 nM R1881, 1 μM compound): approximately 50%; R1881 concentration giving in control cells the growth response equivalent to that at 0.3 nM R1881 under treatment (LNCaP cells; LNCaP, 1 μM compound): 0.03 nM; decrease of R1881-stimulated PSA levels ([6]; 1.0 nM R1881, 1 μM compound): 43%

Which “increase in MMTV/LTR driven luciferase expression” value ([8]; 1.0 nM R1881) does the source give for `C[C@]1(O)CC[C@H]2[C@@H]3CCC4=CC(=O)CCC4=C3C=C[C@@]21C` [R1881, methyltrienolone, reference compound] here?
The value was 20 fold.

And the “increase in luciferase expression” value ([5]; 1.0 nM R1881, 24 h)?
Its value is 54 fold.

And the “increase in PSA levels” value ([6]; 0.05 nM R1881)?
The value was 3.1 fold.

What about the “increase in PSA levels” value ([6]; 1.0 nM R1881) of the same compound?
The value was 12 fold.

For `Cc1cc(C)c2c(c1C)OC(C)(C)CC2` [PMC, 2,2,5,7,8-pentamethylchroman, reference compound], which “anti-androgenic activity in 3H-R1881 competition compared with PMCol” value ([4]; LNCaP cells, FIG. 2A) is on record?
The value was “less anti-androgenic activity than PMCol”.

What about the “shift of R1881-stimulated biphasic LNCaP growth curve” value (LNCaP cells; 30 μM compound) of the same compound?
The value was “more modest, but significant, shift to the right”.

What about the “R1881 concentration giving in control cells the growth response equivalent to that at 0.3 nM R1881 under treatment” value (LNCaP cells; LNCaP, 30 μM compound) of the same compound?
Its value is 0.03 nM.

What about the “decrease of R1881-stimulated PSA levels” value ([6]; 1.0 nM R1881, 30 μM compound) of the same compound?
The value was 20%.

What about the AR protein levels [7] of the same compound?
The AR protein levels was “did not result in altered AR protein levels; also recorded: not significantly altered”.

With `COc1cc(/C=C/C(=O)CC(=O)/C=C/c2ccc(O)c(OC)c2)ccc1O` [curcumin] as the compound, how does the “effect on AR protein levels” value [9] read?
The value was “down-regulate androgen receptor protein levels”.
